From US20090318493A1 (Roche Palo Alto LLC, priority 2008, published 2009) come the findings set out here.

Common to all, as to format: binding
In one test the target is T1, hSERT transporter (Homo sapiens, UniProt P31645).
T1 construct: expressed in transfected cells; membranes prepared
The test is described as follows: Human serotonin transporter (hSERT) scintillation proximity assay, competition with [3H]-Citalopram. A general note: SPA uses beads or plates that emit light when radiolabelled molecules are held near them.

The target in the next test is T2, hNET transporter (Homo sapiens, UniProt P23975).
T2 construct: expressed in transfected cells; membranes prepared
The test is described as follows: Human norepinephrine transporter (hNET) scintillation proximity assay, competition with [3H]-Nisoxetine.

The target of another test is T3, hDAT (Homo sapiens, UniProt Q01959).
T3 construct: expressed in transfected cells; plated whole cells
The test is described as follows: Human dopamine transporter scintillation proximity assay, competition with [3H]-Vanoxerine.

Setting [1] is: Table 1, read-out: pIC50 NET (converted).
Where [2] appears, read: Table 1, read-out: pIC50 DAT (converted).

Where two headings read alike, the source gives them in different places.

T1 sequence (P31645 whole entry): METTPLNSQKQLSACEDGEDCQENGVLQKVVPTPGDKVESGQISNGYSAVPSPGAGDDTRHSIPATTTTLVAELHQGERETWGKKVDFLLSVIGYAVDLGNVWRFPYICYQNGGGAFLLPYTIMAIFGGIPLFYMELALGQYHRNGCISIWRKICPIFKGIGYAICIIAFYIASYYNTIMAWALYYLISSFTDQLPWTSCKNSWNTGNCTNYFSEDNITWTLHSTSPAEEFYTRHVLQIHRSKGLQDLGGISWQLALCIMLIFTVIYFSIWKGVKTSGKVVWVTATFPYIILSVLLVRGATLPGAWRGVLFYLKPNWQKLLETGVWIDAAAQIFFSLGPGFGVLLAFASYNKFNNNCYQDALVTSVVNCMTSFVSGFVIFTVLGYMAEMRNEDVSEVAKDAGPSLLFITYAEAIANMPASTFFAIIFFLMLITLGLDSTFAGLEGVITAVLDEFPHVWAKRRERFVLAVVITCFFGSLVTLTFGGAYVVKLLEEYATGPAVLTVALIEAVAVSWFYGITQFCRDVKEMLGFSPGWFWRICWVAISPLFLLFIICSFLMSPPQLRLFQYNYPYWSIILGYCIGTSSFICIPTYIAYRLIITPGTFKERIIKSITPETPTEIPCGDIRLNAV
T3 sequence (Q01959 whole entry): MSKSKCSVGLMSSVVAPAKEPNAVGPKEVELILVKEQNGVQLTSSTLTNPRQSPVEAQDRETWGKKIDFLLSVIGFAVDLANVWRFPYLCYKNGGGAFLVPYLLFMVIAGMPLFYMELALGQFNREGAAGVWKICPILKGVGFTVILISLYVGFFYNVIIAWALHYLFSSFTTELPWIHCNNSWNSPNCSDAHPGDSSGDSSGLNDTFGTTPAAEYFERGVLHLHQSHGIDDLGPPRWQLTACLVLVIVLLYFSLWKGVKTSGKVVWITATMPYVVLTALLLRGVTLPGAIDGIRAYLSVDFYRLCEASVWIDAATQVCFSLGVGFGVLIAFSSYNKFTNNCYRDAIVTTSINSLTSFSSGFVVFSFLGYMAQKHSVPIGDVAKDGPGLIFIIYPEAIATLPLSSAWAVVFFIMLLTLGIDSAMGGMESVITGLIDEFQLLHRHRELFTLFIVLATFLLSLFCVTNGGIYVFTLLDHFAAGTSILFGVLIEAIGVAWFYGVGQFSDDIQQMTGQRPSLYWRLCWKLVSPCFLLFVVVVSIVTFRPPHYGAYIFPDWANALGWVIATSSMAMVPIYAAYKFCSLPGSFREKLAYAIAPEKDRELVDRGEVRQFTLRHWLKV
T2 sequence (P23975 whole entry): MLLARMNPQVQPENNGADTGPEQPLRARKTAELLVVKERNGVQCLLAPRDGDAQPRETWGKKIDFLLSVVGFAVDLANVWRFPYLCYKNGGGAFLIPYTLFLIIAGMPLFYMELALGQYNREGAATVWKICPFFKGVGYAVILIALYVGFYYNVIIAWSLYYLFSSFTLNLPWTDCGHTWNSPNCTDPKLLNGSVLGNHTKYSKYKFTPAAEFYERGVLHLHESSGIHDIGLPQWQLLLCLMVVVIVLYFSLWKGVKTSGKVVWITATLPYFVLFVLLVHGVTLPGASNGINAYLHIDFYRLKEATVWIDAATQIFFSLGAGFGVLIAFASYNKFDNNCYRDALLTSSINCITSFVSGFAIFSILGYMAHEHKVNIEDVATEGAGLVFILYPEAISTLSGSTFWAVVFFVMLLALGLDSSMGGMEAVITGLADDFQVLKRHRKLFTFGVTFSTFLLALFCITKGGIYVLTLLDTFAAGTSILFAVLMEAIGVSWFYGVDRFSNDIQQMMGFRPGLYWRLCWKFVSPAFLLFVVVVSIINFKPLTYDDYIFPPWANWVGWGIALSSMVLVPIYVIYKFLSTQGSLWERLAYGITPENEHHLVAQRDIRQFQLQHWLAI

With `CC[C@@]1(C(=O)c2ccc(Cl)c(Cl)c2)CC[C@@H]2CC[C@H]1N2` [Compound 48, (3,4-Dichloro-phenyl)-((1R,2R,5R)-2-ethyl-8-aza-bicyclo[3.2.1]oct-2-yl)-methanone], the IC50 on hSERT transporter is 0.00776 µM; at hNET transporter (setting [1]), 1.15 µM; on hDAT it was 0.209 µM.
For `CC[C@]1(C(=O)c2ccc(Cl)c(Cl)c2)CC[C@@H]2CC[C@H]1N2` [Compound 49, (3,4-Dichloro-phenyl)-((1R,2S,5R)-2-ethyl-8-aza-bicyclo[3.2.1]oct-2-yl)-methanone], in that order: 0.631 µM, 5.13 µM and 1.58 µM.
As to `CCCC1(C(=O)c2ccc(Cl)c(-c3ccn[nH]3)c2)CCCNC1` (stereo not drawn) [Compound 50, [4-Chloro-3-(2H-pyrazol-3-yl)-phenyl]-(3-propyl-piperidin-3-yl)-methanone], the IC50 at hSERT transporter was 0.00776 µM; on hNET transporter it was 0.0309 µM; on hDAT (setting [2]), 4.27 µM.
For `CCCC1(C(=O)c2ccc(Cl)c(N(C)c3ccccc3)c2)CCNCC1` [Compound 51, [4-Chloro-3-(methyl-phenyl-amino)-phenyl]-(4-propyl-piperidin-4-yl)-methanone], the IC50 on hSERT transporter (Table 1, read-out: pIC50 SERT (converted)) is 0.0186 µM; at hNET transporter (setting [1]) it was 0.162 µM; on hDAT (setting [2]) it was 0.195 µM.
In the case of `CC(C)(C)CCC1(C(=O)c2ccc(Cl)c(Cl)c2)CCCNC1` (stereo not drawn) [Compound 56, (3,4-Dichloro-phenyl)-[3-(3,3-dimethyl-butyl)-piperidin-3-yl]-methanone], the IC50 on hSERT transporter is 0.0174 µM; on hNET transporter (setting [1]) it was 0.0324 µM; on hDAT it was 0.0151 µM.
With `CC(C)(C)CC[C@]1(C(=O)c2ccc(Cl)c(Cl)c2)CCCNC1` [Compound 59, (3,4-Dichloro-phenyl)-[(S)-3-(3,3-dimethyl-butyl)-piperidin-3-yl]-methanone], the IC50 was 0.0145 µM at hSERT transporter, 0.0105 µM on hNET transporter and 0.324 µM at hDAT (setting [2]).
